Measurements reported in patent US7049317B2, “CCR-3 receptor antagonists” (Syntex (U.S.A.) LLC, priority 2001, dated 2006).

Tests used:
[1] = target: T1, CCR-3 receptor (Homo sapiens, UniProt P51677); assay: CCR-3 Receptor Binding Assay, inhibition of 125I eotaxin binding to CCR-3 L1.2 transfectant cells; settings: 1 hour at room temperature
T1 construct: expressed in transfected cells; host or cells: L1.2 cells (murine pre-B lymphoma line)
T1 sequence (P51677 1-355): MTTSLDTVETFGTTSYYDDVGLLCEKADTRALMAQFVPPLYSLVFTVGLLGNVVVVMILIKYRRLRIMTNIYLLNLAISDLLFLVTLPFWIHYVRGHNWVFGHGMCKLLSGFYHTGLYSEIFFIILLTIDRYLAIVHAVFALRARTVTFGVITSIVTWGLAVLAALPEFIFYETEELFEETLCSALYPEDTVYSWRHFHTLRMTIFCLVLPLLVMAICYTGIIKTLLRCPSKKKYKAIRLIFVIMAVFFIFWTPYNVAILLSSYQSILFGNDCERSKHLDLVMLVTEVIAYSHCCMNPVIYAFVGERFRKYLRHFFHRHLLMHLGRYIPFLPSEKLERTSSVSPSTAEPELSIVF
Procedure: The CCR-3 antagonistic activity of the compounds of the invention was determined by their ability to inhibit the binding of ^125I eotaxin to CCR-3 L1.2 transfectant cells (see Ponath, P. D. et al., J. Exp. Med., Vol. 183, 2437–2448, (1996)).
The assay was performed in Costar 96-well polypropylene round bottom plates. Test compounds were dissolved in DMSO and then diluted with binding buffer (50 mM HEPES, 1 mM CaCl2, 5 mM MgCl2, 0.5% bovine serum albumin (BSA), 0.02% sodium azide, pH 7.24) such that the final DMSO concentration was 2%. 25 μl of the test solution or only buffer with DMSO (control samples) was added to each well, followed by the addition of 25 μl of ^125I-eotaxin ([…]) (NEX314, New England Nuclear, Boston, Mass.) and 1.5×10^5 of the CCR-3 L1.2 transfected cells in 25 μl binding buffer. The final reaction volume was 75 μl.
After incubating the reaction mixture for 1 hour at room temperature, the reaction was terminated by filtering the reaction mixture through polyethylenimine treated Packard Unifilter GF/C filter plate (Packard, Chicago, Ill.). The filters were washed four times with ice cold wash buffer containing 10 mm HEPES and 0.5M sodium chloride (pH 7.2) and dried at 65° C. for approximately 10 minutes. 25 μl/well of Microscint-20® scintillation fluid (Packard) was added and the radioactivity retained on the filters was determined by using the Packard TopCount®

Compound | melting point | IC50 [1]
CN(CCCc1ccc(Cl)cc1)[C@@H]1CCC[C@H]1NC(=O)c1ccc(S(C)(=O)=O)cc1.Cl (racemic) | 109 to 113 °C | –
COc1ccc(-c2cnc(SCC(=O)N[C@@H]3CCC[C@H]3NCCc3ccc(Cl)cc3)nc2)cc1OC.Cl (racemic) | 181.3 to 185.6 °C | –
COc1ccc(-c2cnc(SCC(=O)N[C@@H]3CCC[C@H]3N(C)CCCc3ccc(Cl)cc3)nc2)cc1OC.Cl (racemic) [Compound 9, (±)-trans-N-(2-{[3-(4-Chlorophenyl)propyl]methylamino}-cyclopentyl)-2-[5-(3,4-dimethoxyphenyl)pyrimidin-2-ylsulfanyl]acetamide hydrochloride] | 91.5 to 98.5 °C | 5.6 µM
CS(=O)(=O)c1ccc(C(=O)N[C@@H]2CCC[C@H]2NCCc2ccc(Cl)cc2)cc1.Cl (racemic) | 221.8 to 222.7 °C | –
COc1cc(NC(=O)N[C@@H]2CCC[C@H]2N(C)CCCc2ccc(Cl)cc2)cc(OC)c1OC.Cl (racemic) | 75 to 82 °C | –
COc1ccc(-c2cnc(SCC(=O)N[C@@H]3CCC[C@H]3NCCCc3ccc(Cl)cc3)nc2)cc1OC.Cl (racemic) [Compound 1, (±)-trans-N-{2-[3-(4-Chlorophenyl)propylamino]cyclopentyl}-2-[5-(3,4-dimethoxyphenyl)pyrimidin-2-ylsulfanyl]acetamide hydrochloride] | 95.3 to 111.3 °C | 18.2 µM
COc1ccc(-c2cnc(SCC(=O)N[C@@H]3CCC[C@H]3N(C)CCc3ccc(Cl)cc3)nc2)cc1OC.Cl (racemic) | 123.7 to 125.3 °C | –
COc1cc(NC(=O)N[C@@H]2CCC[C@H]2NCCc2ccc(Cl)cc2)cc(OC)c1OC.Cl (racemic) | 97 to 101.5 °C | –
CN(CCc1ccc(Cl)cc1)[C@@H]1CCC[C@H]1NC(=O)c1ccc(S(C)(=O)=O)cc1.Cl (racemic) | 179 to 179.3 °C | –
COc1cc(NC(=O)N[C@@H]2CCC[C@H]2N(C)CCc2ccc(Cl)cc2)cc(OC)c1OC.Cl (racemic) [Compound 6, (±)-trans-1-(2-{[2-(4-Chlorophenyl)ethyl]methylamino}cyclopentyl)-3-(3,4,5-trimethoxyphenyl)urea hydrochloride] | 97 to 105 °C | 5.4 µM
CS(=O)(=O)c1ccc(C(=O)N[C@@H]2CCC[C@H]2NCCCc2ccc(Cl)cc2)cc1.Cl (racemic) [Compound 2, (±)-trans-N-{2-[3-(4-Chlorophenyl)propylamino]cyclopentyl}-4-methanesulfonylbenzamide hydrochloride] | 192.3 to 196.8 °C | 6.8 µM
COc1cc(NC(=O)N[C@@H]2CCC[C@H]2NCCCc2ccc(Cl)cc2)cc(OC)c1OC.Cl (racemic) | 91.3 to 96 °C | –
